Reference: patent US12377167B2, “Application of AuCs or substances containing AuCs in the preparation of drugs for preventing and/or treating glaucoma” (Shenzhen Profound-View Pharma Tech Co., Ltd, priority 2016, dated 2025)

How the values were obtained:
Aβ(1-40) [1] = target: T1, Aβ(1-40) (Homo sapiens, UniProt P05067); assay: In vitro Aβ(1-40) aggregation kinetics, ThT fluorescent labeling method; type: biochemical; conditions: 20 μM Aβ(1-40); L-NIBC 1.0 and 10.0 ppm; gold nanoparticles up to 20.0 ppm
T1 construct: Freeze-dried powder of amyloid polypeptide Aβ(1-40) (Invitrogen Corp.); purchased Invitrogen Corp
Text: As described above, Aβ plays an important role in the pathogenesis of glaucoma and is an important target for treatment of glaucoma based on the optic nerve protection mechanism. […] Moreover, the function is from AuCs other than ligand. […] Thioflavin T (abbreviation: ThT) is a dye specifically for dyeing amyloid fibers. […] When it encounters amyloid polypeptides or proteins with a fiber structure, it will immediately couple with the amyloid polypeptides or proteins and its fluorescence intensity will increase exponentially. Just because of this property, ThT is widely used as a marker to monitor amyloidosis of peptides or proteins. The fibrosis process of Aβ(1-40) is also a nucleation-controlled polymerization process. Therefore, the growth curve of Aβ(1-40) fiber measured by ThT fluorescent labeling method is mainly divided into three stages: Initial stage, growth stage and platform stage. The initial stage is mainly a stage when Aβ(1-40) undergoes conformational transition to form misfolding and then aggregates and nucleates. […] All the Aβ(1-40) PBS solutions for the experiments were prepared freshly. […] The samples were incubated continuously in a 96-well plate at 37° C. by ThT fluorescent labeling method, and monitored the fluorescence intensity by microplate reader once every 10 minutes.

Aβ(1-40) [2] = target: T1, Aβ(1-40); assay: AFM topography of Aβ(1-40) after 48 h co-incubation; type: biochemical; conditions: co-incubated for 48 h
Protocol: Panel A is the AFM topography after Aβ(1-40) was incubated alone for 48 h. Panel B is an AFM topography after Aβ(1-40) was coincubated with L-NIBC for 48 h. Panel C and panel D are AFM topographies after Aβ(1-40) was coincubated with gold nanoparticles with an average particle size of 6.0 nm and 3.6 nm respectively (modified with L-NIBC) for 48 h. And panel E is an AFM topography after Aβ(1-40) was coincubated with AuCs in an average particle size of 1.8 nm (modified with L-NIBC) for 48 h.

RGC-5 cells [3] = assay: H2O2-induced RGC-5 cell oxidative stress injury model, CCK-8 cell viability; type: cell-based
Protocol: (§1) The cell viability was used as an index in the experiment of this embodiment.
RGC-5 cells in logarithmic growth phase were diluted with complete medium (MEM+10% FBS+1% penicillin-streptomycin) to get a cell suspension in a density of 5×10^4/mL. The suspension was inoculated 100 μL per well into a 96-well plate, and cultivated in an incubator with 5% CO2 at 37° C. One of administration ways in an experiment group is: The original culture medium was removed when the cells attached to the wells, and 50 μL test substances (the test substances were: three kinds of L-NIBC-modified AuCs in particle sizes of 2.6 nm, 1.8 nm or 1.1 nm, or four kinds of L-NIBC-modified gold nanoparticles in particle sizes of 18.2 nm, 10.1 nm, 6.0 nm or 3.6 nm, or L-NIBC molecules not bonded with AuCs or gold nanoparticles as reference) solutions at different concentrations prepared by maintenance medium (DMEM medium+2% FBS+1% penicillin-streptomycin) were added to different wells to make the final concentration be 0.01, 0.05, 0.1, 0.5, 1, 5 and 10 ppm respectively, then 50 μL of H2O2 (the final concentration was 100 μM) was added to the administration group and model group after 2 hours' pretreatment. The cells were incubated for 24 h, then 10% CCK-8 was added to each well and incubated for 4 h. […]

RGC-5 cells [4] = assay: NMDA-induced RGC-5 cell excitotoxicity model, CCK-8; type: cell-based; conditions: 250 μM NMDA, 0.01-10 ppm
Protocol: This embodiment used cell survival rate as an index.
RGC-5 cells in logarithmic growth phase were diluted with complete medium to get a cell suspension in a density of 5×10^4/mL. The suspension was inoculated 100 μL per well into a 96-well plate, and cultivated in an incubator with 5% CO2 at 37° C. One of administration ways in an experiment group is: The original culture medium was removed when the cells attached to the wells, and 50 μL test substances (the test substances were: three kinds of L-NIBC-modified AuCs in particle sizes of 2.6 nm, 1.8 nm or 1.1 nm, or four kinds of L-NIBC-modified gold nanoparticles in particle sizes of 18.2 nm, 10.1 nm, 6.0 nm or 3.6 nm, or L-NIBC molecules not bonded with AuCs or gold nanoparticles as reference) solutions at different concentrations prepared by maintenance medium were added to different wells to make the final concentration be 0.01, 0.05, 0.1, 0.5, 1, 5 and 10 ppm respectively, then 50 μL of NMDA (the final concentration was 250 μM) was added to the administration group and model group after 2 hours' pretreatment. […] The absorbance value of each well at 450 nm wave length was measured to evaluate the pre-protective effect of AuCs on NMDA injury. […] The absorbance value of each well at 450 nm wave length was measured to evaluate the curative effect of AuCs on NMDA injury. […]

RGC-5 cells [5] = assay: Sodium nitroprusside (SNP)-induced RGC-5 apoptosis model, CCK-8 cell viability; type: cell-based
Protocol: as §1
RGC-5 cells in logarithmic growth phase were diluted with complete medium to get a cell suspension in a density of 5×10^4/mL. The suspension was inoculated 100 μL per well into a 96-well plate, and cultivated in an incubator with 5% CO2 at 37° C. […] The absorbance value of each well at 450 nm wave length was measured to evaluate the pre-protective effect of AuCs on SNP injury. […] The absorbance value of each well at 450 nm wave length was measured to evaluate the curative effect of AuCs on SNP injury. […]
RGC-5 cells in logarithmic growth phase were diluted with complete medium to get a cell suspension in a density of 5×10^4/mL. […] The absorbance value of each well at 450 nm wave length was measured to evaluate the pre-protective effect of AuCs on SNP injury. […]

T1 sequence (P05067 672-711 limits assumed): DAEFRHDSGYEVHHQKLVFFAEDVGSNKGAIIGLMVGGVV

With CC(C)C(=O)N[C@@H](CS)C(=O)O [L-NIBC, N-isobutyryl-L-cysteine] the “effect on Aβ(1-40) amyloidosis kinetics” value (Aβ(1-40) [1]) was “no obvious effect on Aβ(1-40) amyloidosis kinetics”, the “Aβ(1-40) fibers in AFM topography” value (Aβ(1-40) [2]) was “no obvious effect on the formation of Aβ(1-40) fibers” and the “effect on cell viability / RGC apoptosis triggered by oxidative stress” value (RGC-5 cells [3]; H2O2-injured RGC cell model, CCK-8) was “did not have an obvious effect”. The viability at 10 ppm (RGC-5 cells [3]; RGC5, 10 ppm, H2O2, 24 h, read-out: cell viability relative to the blank control group (set to be 100%)) was 47.5 ± 6.6%, the “effect on cell viability / neurotransmitter mediated excitatory RGC apoptosis” value (RGC-5 cells [4]) was “did not have an obvious effect” and the viability at 10 ppm (RGC-5 cells [5]; RGC5, 10 ppm, 700 μM SNP, 24 h, read-out: cell viability relative to the blank control group (set to be 100%)) was 52.8 ± 8%. The “effect on cell viability / SNP-induced RGC apoptosis” value (RGC-5 cells [5]; SNP-injured RGC cell model, CCK-8) was “did not have an obvious protective effect”.
